Assay results published in patent US10881656B2, “HIF inhibitors and use thereof” (The General Hospital Corporation, priority 2008, dated 2021).

Experiments:
HIF-2a = HIF-2a protein stability (cycloheximide, 35S-methionine pulse chase); type: cell-based, human; conditions: 786-O cells, 10 μg/mL cycloheximide
Protocol: Cells were treated with medium only, DMSO, or compound as described for western blots. Following the second day of compound incubation, 10 μg/mL cycloheximide (CHx) was added to halt de novo protein synthesis and time points were taken. Protein quantification and Western blots were performed as described.
Cells were treated with medium only, DMSO, or compound as described for western blots. Following the second day of treatment, cells were washed twice in PBS and then placed into medium only, DMSO, or labeling medium (methionine minus DMEM supplemented with 1× glutamine and 5% dialyzed FBS) and pulse-labeled for 30 minutes at 37° C. with 0.5 mCi ^35S-Methionine (New England Nuclear) per p100 plate. Cells were washed twice in PBS and lysed with RIPA buffer supplemented with protease inhibitors. […] In the case of the pulse-chase experiment, two identically treated plates were placed into chasing medium (DMEM supplemented with 10% Fetal Clone I, 1× Glutamine and 3 mg/mL methionine), placed back into the 37° C. incubator and harvested after 1.5 and 3 hours. Immunoprecipitated samples were subjected to SDS-PAGE, enhanced in sodium salicylate, dried and exposed for 2-3 days before the film was quantified by densitometry.
Quantitative RT-PCR was performed on total RNA harvested from 7H4 cells treated with medium only, DMSO or compound. […] To test whether the compounds alter HIF-2a stability, the inventors assessed protein half-life following the addition of cycloheximide in compound versus DMSO-only treated cells (see FIG. 10).

[1] = tested on: iron (Fe-(EDHB)3 complex); experiment: In vitro iron competition assay; conditions: 0-200 micromolars, absorbance at 500 nm
Protocol: This assay was performed similarly to that described previously (Wang et al., 2002). Briefly, displacement of iron from ethyl-3,4-dihydroxybenzoate (EDHB) complex was measured as a decrease in absorbance at 500 nm. Ferric iron, prepared as a 5 mM stock solution of FeC13 in 100 mM sodium citrate, was diluted to 25 μM in the presence of 750 μM EDHB. 1 ml aliquots of this solution were then mixed with 0, 25, 50, 100 or 200 micromolars of compounds 40, 41, 76, and 77 as well as EDTA and DFO for controls. […] The self absorbance of compound 41 in a matched solution lacking Fe-(EDHB)3 was subtracted from the A500 value obtained in the presence of the Fe-(EDHB)3 complex.
The inventors next directly tested whether the compounds bind iron by performing a competition assay in which the displacement of iron from ethyl-3,4-dihydroxybenzoate (EDHB), a weakly chelating ester, was measured as a decrease in absorbance at 500 nm. […] In addition, the inventors utilized the Connectivity Map to look for similarities between the induced gene expression signatures of low and high dose DFO and compound treated cells (Lamb et al., 2006). Using this bioinformatic approach, the inventors discovered no significant similarity between the gene expression profile of the compounds and low (chelating) DFO dose, while there was a negative correlation between compound effect and high (HIF stabilizing) DFO dose (see FIG. 13).

[2] = tested on: HIF-2a 5′-UTR Iron-Responsive Element (IRE); experiment: Luciferase reporters with HIF-2a 5′-UTR / IRE in 786-O cells; type: cell-based, human

## CCCCC/C=C/C=C1/C(=O)C=C[C@@H]1C/C=C\CCCC(=O)O [PGJ2, 15-deoxy-Δ^12,14-prostaglandin J2]
HIF-2a
  HIF-2a protein stability after cycloheximide: no indication that PGJ2 affects HIF2a protein half-life
[1]
  displacement of iron from EDHB complex (iron chelation): not an iron chelator
[2]; 786-O cells, 10 μM
  effect on synthetic 5′-UTR stem loop reporter (CMV-SL over CMV): no effect on the synthetic 5′-UTR element
[2]; 786-O luciferase reporter lines
  dependence of effect on the IRE (wild-type or mutant 5′-UTR IRE reporter): completely abolished PGJ2 sensitivity
[2]; HIF-2a promoter luciferase with or without 5′-UTR
  dependence of effect on HIF-2a 5′-UTR: decreased the luciferase activity derived from the UTR-containing plasmid but not the plasmid driven by the HIF promoter alone
